# From PubChem BioAssay (NCI)
#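 Assay format: 96-well plates, 48-hour exposure. Definition used: TGI = concentration required for complete inhibition of growth.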
# Key:
# Test in all cases: NCI anticancer screen, dose series, 48 h
# OVCAR-8 ovarian = tested on: OVCAR-8 ovarian
# CAKI-1 renal = tested on: CAKI-1 renal
# OVCAR-3 ovarian = tested on: OVCAR-3 ovarian
# HCT-15 colon = tested on: HCT-15 colon
# MOLT-4 leukemia = tested on: MOLT-4 leukemia
# A498 renal = tested on: A498 renal
# HCC-2998 colon = tested on: HCC-2998 colon
# OVCAR-4 ovarian = tested on: OVCAR-4 ovarian
# HOP-92 NSCLC = tested on: HOP-92 NSCLC
# SW-620 colon = tested on: SW-620 colon
# U251 CNS = tested on: U251 CNS
# NCI-H522 lung = tested on: NCI-H522 lung
# RPMI-8226 leukemia = tested on: RPMI-8226 leukemia
# MCF7 breast = tested on: MCF7 breast
# PC-3 prostate = tested on: PC-3 prostate
# EKVX NSCLC = tested on: EKVX NSCLC
# SN12C renal = tested on: SN12C renal
# 786-0 renal = tested on: 786-0 renal
# SF-539 CNS = tested on: SF-539 CNS
# RXF 393 renal = tested on: RXF 393 renal
# UO-31 renal = tested on: UO-31 renal
# IGROV1 ovarian = tested on: IGROV1 ovarian
# K-562 leukemia = tested on: K-562 leukemia
# M14 melanoma = tested on: M14 melanoma
# SF-295 CNS = tested on: SF-295 CNS
# NCI-H226 lung = tested on: NCI-H226 lung
# COLO 205 colon = tested on: COLO 205 colon
# MDA-MB-231 breast = tested on: MDA-MB-231 breast
# HL-60(TB) leukemia = tested on: HL-60(TB) leukemia
# NCI-H23 lung = tested on: NCI-H23 lung
# SK-MEL-5 melanoma = tested on: SK-MEL-5 melanoma
# HOP-62 NSCLC = tested on: HOP-62 NSCLC
# CCRF-CEM leukemia = tested on: CCRF-CEM leukemia
# UACC-257 melanoma = tested on: UACC-257 melanoma
# NCI/ADR-RES ovarian = tested on: NCI/ADR-RES ovarian
# MDA-N = tested on: MDA-N
# HS 578T breast = tested on: HS 578T breast
# SNB-19 CNS = tested on: SNB-19 CNS
# A549 NSCLC = tested on: A549 NSCLC
# SK-OV-3 ovarian = tested on: SK-OV-3 ovarian
# SR leukemia = tested on: SR leukemia
# BT-549 breast = tested on: BT-549 breast
# TK-10 renal = tested on: TK-10 renal
# MDA-MB-435 = tested on: MDA-MB-435
# SK-MEL-28 melanoma = tested on: SK-MEL-28 melanoma
# KM12 colon = tested on: KM12 colon
# HT29 colon = tested on: HT29 colon
# T-47D breast = tested on: T-47D breast
# DU-145 prostate = tested on: DU-145 prostate
# SF-268 CNS = tested on: SF-268 CNS
# MALME-3M melanoma = tested on: MALME-3M melanoma
# ACHN renal = tested on: ACHN renal
# HCT-116 colon = tested on: HCT-116 colon
# UACC-62 melanoma = tested on: UACC-62 melanoma
# SNB-75 CNS = tested on: SNB-75 CNS
# NCI-H460 lung = tested on: NCI-H460 lung
# SK-MEL-2 melanoma = tested on: SK-MEL-2 melanoma
# OVCAR-5 ovarian = tested on: OVCAR-5 ovarian
smiles,measurement,setting,value
CC(C)NC(=O)OCc1c(COC(=O)NC(C)C)c(-c2cc[n+](COC(=O)CC(C)(C)C)cc2)n2c1CCC2,TGI,OVCAR-8 ovarian,> 100 µM
same,TGI,CAKI-1 renal,> 100 µM
same,TGI,OVCAR-3 ovarian,> 100 µM
same,TGI,HCT-15 colon,> 100 µM
same,TGI,MOLT-4 leukemia,> 100 µM
same,TGI,A498 renal,> 100 µM
same,TGI,HCC-2998 colon,> 100 µM
same,TGI,OVCAR-4 ovarian,> 100 µM
same,TGI,HOP-92 NSCLC,> 100 µM
same,TGI,SW-620 colon,> 100 µM
same,TGI,U251 CNS,> 100 µM
same,TGI,NCI-H522 lung,> 100 µM
same,TGI,RPMI-8226 leukemia,> 100 µM
same,TGI,MCF7 breast,> 100 µM
same,TGI,PC-3 prostate,> 100 µM
same,TGI,EKVX NSCLC,> 100 µM
same,TGI,SN12C renal,> 100 µM
same,TGI,786-0 renal,> 100 µM
same,TGI,SF-539 CNS,> 100 µM
same,TGI,RXF 393 renal,> 100 µM
same,TGI,UO-31 renal,> 100 µM
same,TGI,IGROV1 ovarian,> 100 µM
same,TGI,K-562 leukemia,> 100 µM
same,TGI,M14 melanoma,> 100 µM
same,TGI,SF-295 CNS,> 100 µM
same,TGI,NCI-H226 lung,> 100 µM
same,TGI,COLO 205 colon,> 100 µM
same,TGI,MDA-MB-231 breast,> 100 µM
same,TGI,HL-60(TB) leukemia,> 100 µM
same,TGI,NCI-H23 lung,> 100 µM
same,TGI,SK-MEL-5 melanoma,> 100 µM
same,TGI,HOP-62 NSCLC,> 100 µM
same,TGI,CCRF-CEM leukemia,> 100 µM
same,TGI,UACC-257 melanoma,> 100 µM
same,TGI,NCI/ADR-RES ovarian,> 100 µM
same,TGI,MDA-N,> 100 µM
same,TGI,HS 578T breast,> 100 µM
same,TGI,SNB-19 CNS,> 100 µM
same,TGI,A549 NSCLC,> 100 µM
same,TGI,SK-OV-3 ovarian,> 100 µM
same,TGI,SR leukemia,> 100 µM
same,TGI,BT-549 breast,> 100 µM
Cc1cccc(NS(=O)(=O)c2ccc3c(c2)OCCOCCOCCOCCO3)c1,TGI,OVCAR-8 ovarian,> 100 µM
same,TGI,CAKI-1 renal,> 100 µM
same,TGI,HCT-15 colon,> 100 µM
same,TGI,MOLT-4 leukemia,> 100 µM
same,TGI,A498 renal,> 100 µM
same,TGI,HCC-2998 colon,> 100 µM
same,TGI,SW-620 colon,> 100 µM
same,TGI,NCI-H522 lung,65.5 µM
same,TGI,RPMI-8226 leukemia,> 100 µM
same,TGI,MCF7 breast,> 100 µM
same,TGI,TK-10 renal,> 100 µM
same,TGI,PC-3 prostate,> 100 µM
same,TGI,EKVX NSCLC,> 100 µM
same,TGI,SN12C renal,> 100 µM
same,TGI,786-0 renal,> 100 µM
same,TGI,SF-539 CNS,> 100 µM
same,TGI,UO-31 renal,> 100 µM
same,TGI,MDA-MB-435,> 100 µM
same,TGI,IGROV1 ovarian,> 100 µM
same,TGI,K-562 leukemia,> 100 µM
same,TGI,M14 melanoma,> 100 µM
same,TGI,SF-295 CNS,> 100 µM
same,TGI,NCI-H226 lung,> 100 µM
same,TGI,COLO 205 colon,> 100 µM
same,TGI,SK-MEL-28 melanoma,> 100 µM
same,TGI,KM12 colon,> 100 µM
same,TGI,MDA-MB-231 breast,> 100 µM
same,TGI,HT29 colon,> 100 µM
same,TGI,HL-60(TB) leukemia,> 100 µM
same,TGI,T-47D breast,> 100 µM
same,TGI,NCI-H23 lung,> 100 µM
same,TGI,SK-MEL-5 melanoma,> 100 µM
same,TGI,HOP-62 NSCLC,> 100 µM
same,TGI,CCRF-CEM leukemia,> 100 µM
same,TGI,UACC-257 melanoma,> 100 µM
same,TGI,DU-145 prostate,> 100 µM
same,TGI,SF-268 CNS,> 100 µM
same,TGI,MALME-3M melanoma,> 100 µM
same,TGI,MDA-N,> 100 µM
same,TGI,ACHN renal,> 100 µM
same,TGI,HCT-116 colon,> 100 µM
same,TGI,HS 578T breast,> 100 µM
same,TGI,SNB-19 CNS,> 100 µM
same,TGI,UACC-62 melanoma,> 100 µM
same,TGI,SNB-75 CNS,> 100 µM
same,TGI,NCI-H460 lung,> 100 µM
same,TGI,A549 NSCLC,> 100 µM
same,TGI,SK-OV-3 ovarian,> 100 µM
same,TGI,SR leukemia,> 100 µM
same,TGI,BT-549 breast,> 100 µM
Cc1cc(=O)[nH]c(-n2[nH]c3c(c2=O)CCCC3)n1,TGI,CAKI-1 renal,> 100 µM
same,TGI,SK-MEL-2 melanoma,> 100 µM
same,TGI,HCT-15 colon,> 100 µM
same,TGI,MOLT-4 leukemia,> 100 µM
same,TGI,A498 renal,> 100 µM
same,TGI,OVCAR-4 ovarian,> 100 µM
same,TGI,HOP-92 NSCLC,> 100 µM
same,TGI,SW-620 colon,> 100 µM
same,TGI,U251 CNS,> 100 µM
same,TGI,NCI-H522 lung,> 100 µM
same,TGI,RPMI-8226 leukemia,> 100 µM
same,TGI,MCF7 breast,> 100 µM
same,TGI,TK-10 renal,> 100 µM
same,TGI,PC-3 prostate,> 100 µM
same,TGI,EKVX NSCLC,> 100 µM
same,TGI,SN12C renal,> 100 µM
same,TGI,786-0 renal,> 100 µM
same,TGI,SF-539 CNS,> 100 µM
same,TGI,RXF 393 renal,48.7 µM
same,TGI,UO-31 renal,> 100 µM
same,TGI,MDA-MB-435,> 100 µM
same,TGI,OVCAR-5 ovarian,> 100 µM
same,TGI,IGROV1 ovarian,> 100 µM
same,TGI,K-562 leukemia,> 100 µM
same,TGI,M14 melanoma,> 100 µM
same,TGI,SF-295 CNS,> 100 µM
same,TGI,NCI-H226 lung,> 100 µM
same,TGI,COLO 205 colon,> 100 µM
same,TGI,SK-MEL-28 melanoma,> 100 µM
same,TGI,KM12 colon,> 100 µM
same,TGI,MDA-MB-231 breast,> 100 µM
same,TGI,HT29 colon,> 100 µM
same,TGI,HL-60(TB) leukemia,> 100 µM
same,TGI,T-47D breast,> 100 µM
same,TGI,NCI-H23 lung,> 100 µM
same,TGI,SK-MEL-5 melanoma,> 100 µM
same,TGI,CCRF-CEM leukemia,> 100 µM
same,TGI,UACC-257 melanoma,> 100 µM
same,TGI,DU-145 prostate,> 100 µM
same,TGI,SF-268 CNS,> 100 µM
same,TGI,MALME-3M melanoma,> 100 µM
same,TGI,MDA-N,> 100 µM
same,TGI,ACHN renal,> 100 µM
same,TGI,HCT-116 colon,> 100 µM
same,TGI,HS 578T breast,> 100 µM
same,TGI,SNB-19 CNS,> 100 µM
same,TGI,UACC-62 melanoma,> 100 µM
same,TGI,SNB-75 CNS,9.37 µM
same,TGI,NCI-H460 lung,> 100 µM
same,TGI,A549 NSCLC,> 100 µM
same,TGI,SK-OV-3 ovarian,> 100 µM
same,TGI,SR leukemia,> 100 µM
same,TGI,BT-549 breast,> 100 µM
